Experimental findings from US20260191858A1, “COMBINATION THERAPIES” (Kallyope, Inc., priority 2022, published 2026) are described below.

Each structure is given as a SMILES string. A value given as a limit tells only on which side of the number the result lay.

The EC50 is the concentration giving half of the maximal effect. Read a high EC50 as weaker potency.

One test addresses T1, human GPR40 (Homo sapiens, UniProt O14842).
T1 construct: host or cells: CHO-K1
Nature of the test: Inositol phosphate accumulation assay in CHO-K1 cells expressing human GPR40. Format: cell-based. The following applies: CHO-K1 human GPR40, IP1 HTRF, 90 min. How it is done:
CHO-K1 cells expressing human GPR40 were purchased from DiscoverX (95-1005C2). HEK293 cells expressing mouse FFAR1 were prepared using a mouse FFAR1 carrying plasmid purchased from OriGene Technologies (MR222997). The cells were transfected using Lipofectamine 2000 using manufacturer instructions and stable cell line was established from a single cell using geneticine selection. Assay ready frozen (ARF) cells were prepared and used throughout the study.
The assay was performed in a 384-well plate format using IP1 assay kit from Cis-Bio. ARF cells expressing FFAR1 (mouse and human) were thawed, washed and then plated in the appropriate medium (F12 based medium for CHO hFFAR1 and DMEM based medium for HEK293 mFFAR1—both were supplemented with 10% FBS and penicillin/streptomycin). 20 μL of 3.5×10^5 cells/mL were plated on a Poly D-Lysine coated 384-well white plate. The cells were then incubated for 16 hr at 37° C./5% CO2. After 16 hr the medium was removed and 15 μL of stimulation buffer containing the test compounds was added to the cells. The plates were then incubated for 90 min at 37° C./5% CO2. 5 μL of detection buffer (prepared as described in the IP-one kit) was added to each well and the plates were incubated at RT for 1 hr.
[…] was measured using ClarioSTAR plate reader, calculating the ratio between emissions at 665 nm and 620 nm (HTRF ratio). HTRF ratio for positive (Max) and negative (Min) controls were used to normalize HTRF data and generate values for % activity. EC50 and Max activity values were determined using a standard 4-parameter fit.
On the technique in general: TR-FRET usually uses a lanthanide donor and a delayed reading to cut background.

The next test concerns male C57BL/6J mice. As to the kind of experiment: Glucose excursion during oral glucose tolerance test in mice. Format: in vivo. The following applies: OGTT in mice. How it is done: The effects of GPR40 agonists of Formula (B) and a GPR119 agonist of Formula (A) alone and in combination on glucose excursion during an oral glucose tolerance test were assessed in mice. The effects of the combination of a compound of Formula (A) and compounds of Formula (B) with linagliptin (a DPP-4 inhibitor) or metformin were also assessed. Male C57BL/6J mice, approximately 10 weeks old, were acclimated to the facility and the oral dosing procedure. Mice were randomized into balanced treatment groups using body weight. Baseline glucose was assessed immediately before compound administration. […] Blood was assessed for glucose levels 20 min, 40 min, 60 min, and 120 min post D-(+)-glucose administration. The AUCs for blood glucose measures were calculated for each treatment from 0 to 120 min. Statistical analysis was performed on AUCs using one-way ANOVA versus vehicle, with Tukey's post-test.

The target of the next test is T2, human GPR119 (hGPR119) (Homo sapiens, UniProt Q8TDV5).
T2 construct: expressed in transfected cells; host or cells: CHO-K1
T2 sequence (Q8TDV5 1-335): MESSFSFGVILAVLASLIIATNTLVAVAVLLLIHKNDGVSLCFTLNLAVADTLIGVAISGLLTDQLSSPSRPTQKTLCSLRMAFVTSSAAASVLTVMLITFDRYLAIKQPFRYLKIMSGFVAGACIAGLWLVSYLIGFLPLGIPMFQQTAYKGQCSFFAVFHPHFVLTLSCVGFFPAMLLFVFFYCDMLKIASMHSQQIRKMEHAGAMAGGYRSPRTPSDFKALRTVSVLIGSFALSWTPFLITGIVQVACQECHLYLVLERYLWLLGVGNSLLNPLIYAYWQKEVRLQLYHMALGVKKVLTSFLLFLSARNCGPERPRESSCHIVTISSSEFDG
As to the kind of experiment: cAMP accumulation assay in CHO-K1 cells stably expressing hGPR119. The test is classed as cell-based. The following applies: cAMP HTRF, 60 minutes. Put shortly: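 Assay-ready frozen CHO-K1 cells stably expressing hGPR119, ~10,000 cells/well, were exposed to compounds for 60 min at 37 °C in stimulation buffer with Tween 80. cAMP was measured by HTRF (665/620 nm ratio) and normalized to Max/Min controls as % activity. EC50 and Max activity came from a 4-parameter fit.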
(In general: Changes in cAMP serve as a functional read-out for many G protein-coupled receptors.)

T1 sequence (O14842 whole entry): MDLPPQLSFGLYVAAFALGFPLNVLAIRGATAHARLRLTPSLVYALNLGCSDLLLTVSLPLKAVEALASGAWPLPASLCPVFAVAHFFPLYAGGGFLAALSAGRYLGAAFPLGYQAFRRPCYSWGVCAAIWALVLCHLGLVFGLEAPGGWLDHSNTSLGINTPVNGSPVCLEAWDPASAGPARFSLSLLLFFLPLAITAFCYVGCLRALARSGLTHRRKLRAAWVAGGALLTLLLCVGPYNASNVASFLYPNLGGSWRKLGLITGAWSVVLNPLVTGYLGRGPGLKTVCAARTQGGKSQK

For the compound `CC[C@H](Cc1cccc(OCC2CCN(c3cc(OC)ccc3CCCC(C)(C)C)CC2)c1)P(C)(=O)O` [Compound B13, ((R)-1-(3-((1-(2-(4,4-dimethylpentyl)-5-methoxyphenyl)piperidin-4-yl)methoxy)phenyl)butan-2-yl)(methyl)phosphinic acid], on human GPR40, the EC50 lay within 250 to 1000 nM.

Turning to `CC[C@@H](Cc1cccc(OCC2CCN(c3cc(OC)ccc3CCCC(C)(C)C)CC2)c1)P(C)(=O)O` [Compound B12, ((S)-1-(3-((1-(2-(4,4-dimethylpentyl)-5-methoxyphenyl)piperidin-4-yl)methoxy)phenyl)butan-2-yl)(methyl)phosphinic acid], the 50% effective concentration (EC50) at human GPR40 lay in the range of 250 to 1000 nM.

Turning to `COc1ccc(CCCC(C)(C)C)c(N2CCC(COc3cccc([C@H](C)CP(C)(=O)O)c3)CC2)c1` [Compound B10, ((S)-2-(3-((1-(2-(4,4-dimethylpentyl)-5-methoxyphenyl)piperidin-4-yl)methoxy)phenyl)propyl)(methyl) phosphinic acid], the EC50 at human GPR40 is at most 50 nM.

As to `COc1ccc(F)c([C@H]2CC[C@H](COc3cccc([C@@H](C[P@@](C)(=O)O)C4CC4)c3)CC2)c1` (single isomer, unassigned) [Compound B4], at human GPR40, the EC50 lay in the range of 50 to 250 nM.

For the compound `COc1ccc(CCCC(C)(C)C)c(N2CCC(COc3cc([C@H](C)CP(C)(=O)O)ccn3)CC2)c1` [Compound B9, ((S)-2-(2-((1-(2-(4,4-dimethylpentyl)-5-methoxyphenyl)piperidin-4-yl)methoxy)pyridin-4-yl)propyl)(methyl)phosphinic acid], the EC50 on human GPR40 fell in the range of 250 to 1000 nM.

With `COc1ccc(CCCC(C)(C)C)c(N2CCC(COc3cc([C@@H](CP(C)(=O)O)C4CC4)ccn3)CC2)c1` [Compound B7, ((S)-2-cyclopropyl-2-(2-((1-(2-(4,4-dimethylpentyl)-5-methoxyphenyl)piperidin-4-yl)methoxy)pyridin-4-yl)ethyl)(methyl)phosphinic acid], the EC50 on human GPR40 is at most 50 nM.

Regarding `COc1ccc(CCCC(C)(C)C)c(N2CCC(COc3cccc([C@@H](C)CP(C)(=O)O)c3)CC2)c1` [Compound B11, ((R)-2-(3-((1-(2-(4,4-dimethylpentyl)-5-methoxyphenyl)piperidin-4-yl)methoxy)phenyl)propyl)(methyl) phosphinic acid], the EC50 on human GPR40 is 50 to 250 nM.

In turn, `COc1ccc(CCCC(C)(C)C)c(N2CCC(COc3cc([C@@H](C)CP(C)(=O)O)ccn3)CC2)c1` [Compound B8, ((R)-2-(2-((1-(2-(4,4-dimethylpentyl)-5-methoxyphenyl)piperidin-4-yl)methoxy)pyridin-4-yl)propyl)(methyl)phosphinic acid] came in with a concentration for a half-maximal effect (EC50) at human GPR40 of at most 50 nM.

The compound `COc1ccc(CCCC(C)(C)C)c(N2CCC(COc3cccc([C@@H](CP(C)(=O)O)C4CC4)c3)CC2)c1` [Compound B6, ((S)-2-cyclopropyl-2-(3-((1-(2-(4,4-dimethylpentyl)-5-methoxyphenyl)piperidin-4-yl)methoxy)phenyl)ethyl)(methyl)phosphinic acid] gave a 50% effective concentration (EC50) at human GPR40 of at most 50 nM.

For the compound `CN(C)C(=N)N=C(N)N` [metformin], the post-prandial glucose excursion result with male C57BL/6J mice was “suppressed post-prandial glucose excursion”.

As for `COc1ccc(F)c([C@H]2CC[C@H](COc3cccc([C@H](C[P@@](C)(=O)O)C4CC4)c3)CC2)c1` (single isomer, unassigned) [Compound B3], the EC50 on human GPR40 was at most 50 nM.

On to `O=C(CC1(O)CN(C(=O)Cc2ccc(OCCCC3CCN(c4ncc(Cl)cn4)CC3)cc2F)C1)NCC(CO)(CO)CO` [Compound A71, 2-[1-[2-[4-[3-[1-(5-chloropyrimidin-2-yl)-4-piperidyl]propoxy]-2-fluoro-phenyl]acetyl]-3-hydroxy-azetidin-3-yl]-N-[3-hydroxy-2,2-bis(hydroxymethyl)propyl]acetamide], for which, on human GPR119 (hGPR119), the EC50 was at most 100 nM.

The compound `O=C(CC1CN(C(=O)Cc2ccc(OCCCC3CCN(c4ncc(Cl)cn4)CC3)cc2F)C1)NC[C@H](O)[C@@H](O)[C@H](O)[C@H](O)CO` (racemic) [Compound A11, 2-[1-[2-[4-[3-[1-(5-chloropyrimidin-2-yl)-4-piperidyl]propoxy]-2-fluoro-phenyl]acetyl]azetidin-3-yl]-N-[rac-(2S,3R,4R,5R)-2,3,4,5,6-pentahydroxyhexyl]acetamide] showed a half-maximal effective concentration (EC50) on human GPR119 (hGPR119) of 100 to 1000 nM.

Turning to `O=C(CC1CN(C(=O)Cc2ccc(OCCCC3CCN(c4ncc(Cl)cn4)CC3)cc2F)C1)NCCS(=O)(=O)O` [Compound A68, 2-[[2-[1-[2-[4-[3-[1-(5-chloropyrimidin-2-yl)-4-piperidyl]propoxy]-2-fluoro-phenyl]acetyl]azetidin-3-yl]acetyl]amino]ethanesulfonic acid], the 50% effective concentration (EC50) on human GPR119 (hGPR119) lay within 100 to 1000 nM.

On human GPR119 (hGPR119), `CCCc1cnc(N2CCC(CCCOc3ccc(CC(=O)N4CC(CNC[C@H](O)[C@@H](O)[C@H](O)[C@H](O)CO)C4)c(F)c3)CC2)nc1` [Compound A44, 2-(2-fluoro-4-(3-(1-(5-propylpyrimidin-2-yl)piperidin-4-yl)propoxy)phenyl)-1-(3-((((2S,3R,4R,5R)-2,3,4,5,6-pentahydroxyhexyl)amino)methyl)azetidin-1-yl)ethan-1-one] showed an EC50 of 100 to 1000 nM.

`COc1ccc(F)c([C@H]2CC[C@H](COc3cc([C@@H](CP(C)(=O)O)C4CC4)ccn3)CC2)c1` [Compound B5, ((S)-2-cyclopropyl-2-(2-(((trans)-4-(2-fluoro-5-methoxyphenyl)cyclohexyl)methoxy)pyridin-4-yl)ethyl)(methyl)phosphinic acid] registered an EC50 at human GPR40 of at most 50 nM.

In turn, `CCCc1cnc(N2CCC(CCCOc3ccc(CC(=O)N4CC(CNCCNC(=O)NC(CO)(CO)CO)C4)c(F)c3)CC2)nc1` [Compound A43, 1-(1,3-dihydroxy-2-(hydroxymethyl)propan-2-yl)-3-(2-(((1-(2-(2-fluoro-4-(3-(1-(5-propylpyrimidin-2-yl)piperidin-4-yl)propoxy)phenyl)acetyl)azetidin-3-yl)methyl)amino)ethyl)urea] had a half-maximal effective concentration (EC50) on human GPR119 (hGPR119) of 100 to 1000 nM.

As to `O=C(Cc1ccc(OCCCC2CCN(c3ncc(Cl)cn3)CC2)cc1F)N1CC(CCNC(CO)CO)C1` [Compound A26, 2-(4-(3-(1-(5-chloropyrimidin-2-yl)piperidin-4-yl)propoxy)-2-fluorophenyl)-1-(3-(2-((1,3-dihydroxypropan-2-yl)amino)ethyl)azetidin-1-yl)ethan-1-one], on human GPR119 (hGPR119), the half-maximal effective concentration (EC50) is at most 100 nM.
